LogP, chromatographic logP and pest or weed control data for 53 compounds are collected here from US20190218187A1, “Novel 5-substituted imidazolylmethyl derivatives” (Bayer CropScience Aktiengesellschaft, priority 2016, published 2019).

Data set [1] is described as follows: LogP by HPLC on reversed phase columns (EEC directive 79/831 Annex V.A8). It counts as physicochemical. Particulars: method [a]: LC-UV, acidic range, 0.1% formic acid in water and acetonitrile as eluent (linear gradient 10% to 95% acetonitrile); for chromatographic logP: reversed phase HPLC column. As for the experimental part: [table] If more than one LogP value is available within the same method, all the values are given and separated by “+”. Calibration was done with straight-chain alkan2-ones (with 3 to 16 carbon atoms) with known LogP values (measurement of LogP values using retention times with linear interpolation between successive alkanones). Lambda-max-values were determined using UV-spectra from 200 nm to 400 nm and the peak values of the chromatographic signals.

In data set [2] the test system is Septoria tritici. In words: In vivo preventive test on Septoria tritici (leaf spot on wheat). Particulars: Zymoseptoria tritici, 576 h, read-out: efficacy. Here is the method:
Example B: In Vivo Preventive Test on Septoria tritici (Leaf Spot on Wheat)
(§1) The active ingredients are made soluble and homogenized in a mixture of Dimethyl sulfoxide/Acetone/Tween® 80 and then diluted in water to the desired concentration.
The young plants of wheat are treated by spraying the active ingredient prepared as described above. Control plants are treated only with an aqueous solution of Acetone/Dimethyl sulfoxide/Tween® 80.
After 24 hours, the plants are contaminated by spraying the leaves with an aqueous suspension of Septoria tritici spores. The contaminated wheat plants are incubated for 72 hours at 18° C. and at 100% relative humidity and then for 21 days at 20° C. and at 90% relative humidity.
The test is evaluated 24 days after the inoculation. 0% means an efficacy which corresponds to that of the control plants while an efficacy of 100% means that no disease is observed.

Data set [3] deals with Sphaerotheca fuliginea. The data set is described as follows: In vivo preventive test on Sphaerotheca fuliginea (powdery mildew on cucurbits). The note with it: Podosphaera fuliginea, 360 h, read-out: efficacy. As for the experimental part: Example C: In Vivo Preventive Test on Sphaerotheca fuliginea (Powdery Mildew on Cucurbits)
as §1
The young plants of gherkin are treated by spraying the active ingredient prepared as described above. Control plants are treated only with an aqueous solution of Acetone/Dimethyl sulfoxide/Tween® 80.
After 24 hours, the plants are contaminated by spraying the leaves with an aqueous suspension of Sphaerotheca fuliginea spores. The contaminated gherkin plants are incubated for 72 hours at 18° C. and at 100% relative humidity and then for 12 days at 20° C. and at 70-80% relative humidity.
The test is evaluated 15 days after the inoculation. 0% means an efficacy which corresponds to that of the control plants while an efficacy of 100% means that no disease is observed.

Where [4] appears, read: 500 ppm of active ingredient, wheat plants, preventive spray, evaluated 24 days after inoculation, 100% = no disease.
[5] abbreviates: 500 ppm of active ingredient, gherkin plants, preventive spray, evaluated 15 days after inoculation, 100% = no disease.

Structures are written as SMILES. Like-named read-outs stand apart in the source and are kept apart here.

Regarding `N#Cc1cncn1CC(O)(CCc1ccc(Cl)cc1F)C1(Cl)CC1` (stereo not drawn) [I-32], in data set [1], the LogP is 3.41 ^[a]. Same read-out and setting: to `N#Cc1cncn1CC(O)(CCc1ccccc1)c1ccccc1` (stereo not drawn) [I-45] belongs 2.74 ^[a]; to `N#Cc1cncn1CC(O)(CCc1ccc(Cl)cc1F)C1(F)CC1` (stereo not drawn) [I-25], 3.00 ^[a].

Take `N#Cc1cncn1CC(O)(CCc1ccc(Cl)cc1)c1ccc(Cl)cc1` (stereo not drawn) [I-40]: the LogP in data set [1] was 3.96 ^[a]. Still for that read-out and setting: to `N#Cc1cncn1CC(O)(CCc1ccc(F)nc1)C1(Cl)CC1` (stereo not drawn) [I-33] belongs 2.20 ^[a]; to `N#Cc1cncn1CC(O)(CCc1ccccc1)C1CC1` (stereo not drawn) [I-31], 2.49 ^[a]; to `N#Cc1cncn1CC(O)(CCc1cccnc1)C1(F)CC1` (stereo not drawn) [I-23], 0.53 ^[a].

Take `N#Cc1cncn1CC(O)(CCc1ccc(Cl)cc1F)c1ccccc1` (stereo not drawn) [I-52]: the LogP in data set [1] was 3.23 ^[a].

Turning to `N#Cc1cncn1CC(O)(CCc1ccc(Cl)cc1F)c1ccc(Cl)cc1F` (stereo not drawn) [I-50], in data set [1], the LogP is 3.75 ^[a]. Consider `N#Cc1cncn1CC(O)(CCc1ccccc1)C1(F)CC1` (stereo not drawn) [I-10, 3-[2-(1-fluorocyclopropyl)-2-hydroxy-4-phenyl-butyl]imidazole-4-carbonitrile], for which the chromatographic logP (in general, a lipophilicity value derived from retention on a column) in data set [1] worked out at 2.53. Besides, the pest or weed control at 500 ppm in data set [2] (setting [4]) and in data set [3] (setting [5]) was 90 to 100% in each case. Regarding `N#Cc1cncn1CC(O)(CCc1ccc(OC(F)(F)F)c(F)c1)C1(Cl)CC1` (stereo not drawn) [I-16], in data set [1], the LogP is 3.69 ^[a]. On the same count and under the same terms, to `CC1(C(O)(CCc2ccc(Cl)cc2)Cn2cncc2C#N)CC1` (stereo not drawn) [I-48] belongs 3.22 ^[a]; to `N#Cc1cncn1CC(O)(CCc1ccc(Cl)nc1)C1(F)CC1` (stereo not drawn) [I-27], 2.03 ^[a]. On the same count and under the same terms, to `N#Cc1cncn1CC(O)(CCc1ccc(Cl)cc1F)c1ccc(Cl)cc1` (stereo not drawn) [I-44] belongs 3.64 ^[a]; to `Cc1ccc(CCC(O)(Cn2cncc2C#N)C(C)(C)C)cc1` (stereo not drawn) [I-29], 3.22 ^[a]; to `CC(C)(C)C(O)(CCc1ccc(C(F)(F)F)cc1)Cn1cncc1C#N` (stereo not drawn) [I-41], 3.42 ^[a]. Same read-out and setting: to `N#Cc1cncn1CC(O)(CCc1ccc(F)cc1F)C1(F)CC1` (stereo not drawn) [I-15] belongs 2.69 ^[a]; to `Cc1ccc(CCC(O)(Cn2cncc2C#N)C2(F)CC2)cc1` (stereo not drawn) [I-17], 2.90 ^[a]. As to `CC(C)(C)c1ccc(CCC(O)(Cn2cncc2C#N)C2(Cl)CC2)cc1` (stereo not drawn) [I-01], the LogP in data set [1] was 4.18 ^[a]. Still for that read-out and setting: to `N#Cc1cncn1CC(O)(CCc1ccccc1)c1ccc(Cl)cc1F` (stereo not drawn) [I-49] belongs 3.37 ^[a]; to `N#Cc1cncn1CC(O)(CCc1ccc(Cl)cc1)C1(F)CC1` (stereo not drawn) [I-22], 2.98 ^[a]. As to `CC(C)(CC(O)(Cn1cncc1C#N)C1(Cl)CC1)c1ccccc1` (stereo not drawn) [I-13, 1-[2-(1-chlorocyclopropyl)-2-hydroxy-4-methyl-4-phenylpentyl]-1H-imidazole-5-carbonitrile], in data set [1], the chromatographic logP was 3.09. For the same compound, the pest or weed control at 500 ppm in data set [2] and in data set [3] was 90 to 100% throughout.

Regarding `N#Cc1cncn1CC(O)(CCc1ccc(Cl)cc1)c1ccc(Cl)cc1F` (stereo not drawn) [I-51], in data set [1], the LogP is 3.79 ^[a]. Still for that read-out and setting: to `CC1(c2ccc(CCC(O)(Cn3cncc3C#N)C3(F)CC3)cc2)CC1` (stereo not drawn) [I-21] belongs 3.55 ^[a]; to `N#Cc1cncn1CC(O)(CCc1ccc(Cl)cc1)CC1CC1` (stereo not drawn) [I-43], 3.02 ^[a]; to `N#Cc1cncn1CC(O)(CCc1ccccc1)c1ccc(Cl)cc1` (stereo not drawn) [I-39], 3.46 ^[a]. Still for that read-out and setting: to `N#Cc1cncn1CC(O)(CCc1ccccc1)C1(Cl)CC1` (stereo not drawn) [I-07] belongs 2.88 ^[a]; to `CC(C)(C)c1ccc(CCC(O)(Cn2cncc2C#N)C2(F)CC2)cc1` (stereo not drawn) [I-09], 3.78 ^[a].

As to `CC(C)(C)C(O)(CCc1ccc(Cl)cc1)Cn1cncc1C#N` (stereo not drawn) [I-02, 3-[2-[2-(4-chlorophenyl)ethyl]-2-hydroxy-3,3-dimethyl-butyl]imidazole-4-carbonitrile], the chromatographic logP in data set [1] was 3.31. Besides, the pest or weed control at 500 ppm in data set [2] (setting [4]) and in data set [3] (setting [5]) was 90 to 100% in each case. Turning to `N#Cc1cncn1CC(O)(CCc1ccc(Cl)cc1)C1CCC1` (stereo not drawn) [I-37], the LogP in data set [1] was 3.23 ^[a]. With `CC(C)(C)C(O)(CCc1ccc(Cl)cc1)Cn1cncc1Br` (stereo not drawn) [I-11], in data set [1], the LogP was 2.75 ^[a].

As to `N#Cc1cncn1CC(O)(CCc1ccc(Cl)cc1)C1CC1` (stereo not drawn) [I-30], the LogP in data set [1] was 2.90 ^[a].

`CC(C)(C)C(O)(CCc1ccc(Cl)cc1)Cn1cncc1Cl` (stereo not drawn) [I-04]: in data set [1], the LogP is 2.78 ^[a].

Consider `N#Cc1cncn1CC(O)(CCc1ccc(C(F)(F)F)cc1)C1(Cl)CC1` (stereo not drawn) [I-08], for which, in data set [1], the LogP is 3.48 ^[a]. Still for that read-out and setting: to `N#Cc1cncn1CC(O)(CCc1ccccc1)CC1CC1` (stereo not drawn) [I-42] belongs 2.62 ^[a]. Compound `N#Cc1cncn1CC(O)(CCC1Cc2ccccc2O1)C1(F)CC1` (stereo not drawn) [I-53, 1-[4-(2,3-dihydro-1-benzofuran-2-yl)-2-(1-fluorocyclopropyl)-2-hydroxybutyl]-1H-imidazole-5-carbonitrile] had a chromatographic logP in data set [1] of 2.61. Turning to `Cc1ccc(CCC(O)(Cn2cncc2C#N)C2(Cl)CC2)cc1` (stereo not drawn) [I-19], the LogP in data set [1] was 3.23 ^[a].

Turning to `OC(CCc1ccc(Cl)cc1)(Cn1cncc1Cl)C1(Cl)CC1` (stereo not drawn) [I-12], the LogP in data set [1] was 2.73 ^[a]. Still for that read-out and setting: to `N#Cc1cncn1CC(O)(CCc1ccccc1)C1CCC1` (stereo not drawn) [I-38] belongs 2.80 ^[a]; to `N#Cc1cncn1CC(O)(CCc1ccccc1F)C1(F)CC1` (stereo not drawn) [I-26], 2.56 ^[a]; to `CC1(c2ccc(CCC(O)(Cn3cncc3C#N)C3(Cl)CC3)cc2)CC1` (stereo not drawn) [I-24], 4.03 ^[a]. Regarding `CC(C)(C)C(O)(CCc1ccc(Cl)cc1)Cn1cncc1F` (stereo not drawn) [I-06, 1-(4-chlorophenyl)-3-[(5-fluoroimidazol-1-yl)methyl]-4,4-dimethyl-pentan-3-ol], in data set [1], the chromatographic logP is 2.25. The pest or weed control at 500 ppm in data set [2] (setting [4]) is 80 to 89%; in data set [3] (setting [5]) it was 90 to 100%. For the compound `N#Cc1cncn1CC(O)(CCc1ccc(OC(F)(F)F)cc1)C1(F)CC1` (stereo not drawn) [I-14], in data set [1], the LogP was 3.29 ^[a]. The same measure, in the same setting: to `CC(C)C(O)(CCc1ccccc1)Cn1cncc1C#N` (stereo not drawn) [I-36] belongs 2.53 ^[a]. In turn, `N#Cc1cncn1CC(O)(CCc1ccc(Cl)cc1)C1(Cl)CC1` (stereo not drawn) [I-18, 3-[2-(1-chlorocyclopropyl)-4-(4-chlorophenyl)-2-hydroxy-butyl]imidazole-4-carbonitrile] yielded a chromatographic logP in data set [1] of 3.42. Further, the pest or weed control at 500 ppm in data set [2] (setting [4]) and in data set [3] (setting [5]) was 90 to 100% each time. In data set [1], `N#Cc1cncn1CC(O)(CCc1ccc(Cl)cc1)c1ccccc1` (stereo not drawn) [I-46, 3-[4-(4-chlorophenyl)-2-hydroxy-2-phenyl-butyl]imidazole-4-carbonitrile] yielded a chromatographic logP of 3.13. Moreover, the pest or weed control at 500 ppm in data set [2] (setting [4]) and in data set [3] (setting [5]) was 90 to 100% throughout.

As to `CC(C)(C)C(O)(CCc1ccccc1)Cn1cncc1C#N` (stereo not drawn) [I-20], the LogP in data set [1] was 2.90 ^[a]. Take `CC(C)(C)C(O)(CCc1ccc(Cl)cc1)Cn1cncc1C=O` (stereo not drawn) [I-05]: in data set [1], the LogP is 3.02 ^[a].

Consider `N#Cc1cncn1CC(O)(CCc1ccc(C(F)(F)F)cc1)C1(F)CC1` (stereo not drawn) [I-03, 3-[2-(1-fluorocyclopropyl)-2-hydroxy-4-[4-(trifluoromethyl)phenyl]butyl]imidazole-4-carbonitrile], for which the chromatographic logP in data set [1] was determined as 3.15. The pest or weed control at 500 ppm in data set [2] (setting [4]) and in data set [3] (setting [5]) was 90 to 100% in each case.

`CC(C)C(O)(CCc1ccc(Cl)cc1)Cn1cncc1C#N` (stereo not drawn) [I-35]: in data set [1], the LogP is 2.95 ^[a].

In the case of `CC1(C(O)(CCc2ccccc2)Cn2cncc2C#N)CC1` (stereo not drawn) [I-47], the LogP in data set [1] was 2.80 ^[a]. For the compound `N#Cc1cncn1CC(O)(CCc1ccc(Cl)nc1)C1(Cl)CC1` (stereo not drawn) [I-28, 3-[2-(1-chlorocyclopropyl)-4-(6-chloro-3-pyridyl)-2-hydroxy-butyl]imidazole-4-carbonitrile], the chromatographic logP in data set [1] is 2.39. The pest or weed control at 500 ppm in data set [2] (setting [4]) and in data set [3] (setting [5]) was 90 to 100% throughout. With `N#Cc1cncn1CC(O)(CCc1ccc(F)nc1)C1(F)CC1` (stereo not drawn) [I-34], in data set [1], the LogP is 1.88 ^[a].
